In patent US20220380341A1, “INHIBITORS OF HIV-1 NEF FOR THE TREATMENT OF HIV DISEASE” (priority 2018, published 2022):
Where “and” joins values, the source holds several entries; their conditions need not be identical. Equal entries are not always repeated. Where two headings read alike, the source gives them in different places.

Experiments:
HIV-1NL4-3 = assay: HIV-1 infectivity assay in TZM-bl reporter cell line (LTR-luciferase, 48 h); assay type: cell-based; details: for inhibition at 1 µM: Human immunodeficiency virus 1, TZM-bl
Outline: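 Compounds were tested at 1 μM in TZM-bl cells infected with HIV-1NL4-3. Infectivity was read as luciferase signal 48 h after infection and expressed as percent inhibition, normalized between DMSO-treated wild-type infection (0%) and DMSO-treated Nef-defective HIV-1 infection (100% of the Nef-dependent effect).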

TZM-bl cell line = assay type: cell-based; details: human, 1 μM
Outline: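 Read-out is luciferase from an integrated HIV-1 LTR reporter in TZM-bl cells, 48 h after HIV-1NL4-3 infection in the presence of 1 μM compound. Scale set by DMSO-treated wild-type-infected cells (0%) and Nef-defective virus (100% Nef-dependent effect). Cell Titer Blue measures cytotoxicity without virus.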

HIV-1 NefNL4-3 = HIV-1 NefNL4-3 (Human immunodeficiency virus type 1 group M subtype B, UniProt P03406, A33V/T15A/T51N/V11I); assay: Surface plasmon resonance binding to recombinant full-length Nef (NL4-3); details: for RU30/RUNef (extent of binding): response units at 30 μM relative to Nef immobilized on the SPR chip
[1] = 1.0 μM, TZM-bl reporter cell line, Table 4, read-out: % Infectivity Inhibition
[2] = 48 h, Table 1, TZM-bl cells, 1 μM, 48 h, 100% = Nef-defective HIV-1, read-out: HIV-1 Infectivity % Inhibition Norm. to Δ-Nef @ 1 μM
[3] = KD, M, Table 4, SPR fit 2-step induced fit, KD = koff/kon × koff2/(koff2 + kon2)
[4] = Nef NL4-3 Binding, SPR 2-state fitting KD, Table 1, 2-step induced-fit model
[5] = Table 4, 2-step induced fit, T = 1/koff2
[6] = KD, M, Table 4, SPR fit 1:1 Langmuir, KD = koff/kon
[7] = Table 4, 1:1 Langmuir fit, T = 1/koff
[8] = read-out: Nef NL4-3 Binding, SPR 1:1 or 2-site fitting KD2, Table 1, 2-site fit, second component
[9] = Nef NL4-3 Binding, SPR 1:1 or 2-site fitting KD2, Table 1, 2-site fit, second component

Row | Compound | inhibition at 1 µM (HIV-1NL4-3; [1]) [%] | inhibition at 1 µM (HIV-1NL4-3; [2]) [%] | % Cell Viability (TZM-bl cell line) [%] | Percent Viability @ 1 μM (TZM-bl cells) (TZM-bl cell line) [%] | Kd (HIV-1 NefNL4-3) | Kd (HIV-1 NefNL4-3; [3]) [nM] | Kd (HIV-1 NefNL4-3; [4]) [nM] | T, minutes (residence time) (HIV-1 NefNL4-3; [5]) | RU30/RUNef (extent of binding) (HIV-1 NefNL4-3) | Kd (HIV-1 NefNL4-3; [6]) [nM] | T, minutes (residence time) (HIV-1 NefNL4-3; [7]) | Kd (HIV-1 NefNL4-3; [8]) [nM] | Kd (HIV-1 NefNL4-3; [9]) [nM] | inhibition at 1 µM (HIV-1NL4-3; 48 h, Table 2, TZM-bl cells, 1 μM, 48 h, 100% = Nef-defective HIV-1, read-out: HIV-1 Infectivity % Inhibition Norm. to Δ-Nef @ 1 μM) [%] | Nef NL4-3 Binding, SPR 1:1 or 2-site fitting KD1 (HIV-1 NefNL4-3; Table 2, 1:1 Langmuir fit where the KD2 cell says '1 to 1 fitting', else 2-site fit) | HIV-1 Infectivity % Inhibition Norm. to Δ-Nef @ 1 μM (HIV-1NL4-3; Table 1, TZM-bl cells, 1 μM, 48 h, 100% = Nef-defective HIV-1) [%]
1 | CC(=O)N1CCC(CCc2c(-c3ccc(C(F)(F)F)cc3)nn(-c3nc4ccccc4[nH]3)c2O)CC1 [Compound I-719, 1-(4-{2-[1-(1H-1,3-benzodiazol-2-yl)-5-hydroxy-3-[4-(trifluoromethyl)phenyl]-1H-pyrazol-4-yl]ethyl}piperidin-1-yl)ethan-1-one] | 0 | -8.3 | 98.0 | 98.0 | 2200 nM | 451 | 451 | 4.44E + 01 minutes | 9.42E- 03 | – | – | – | – | – | – | –
2 | Cc1ccn(CCc2c(-c3ccc(C(F)(F)F)cc3)nn(-c3nc4ccc(Cl)cc4[nH]3)c2O)n1 [Compound I-163, 1-(6-chloro-1H-1,3-benzodiazol-2-yl)-4-[2-(3-methyl-1H-pyrazol-1-yl)ethyl]-3-[4-(trifluoromethyl)phenyl]-1H-pyrazol-5-ol] | 0.3 | 0.3 | 96.6 | 96.6 | 1010 nM | 5820 | 5820 | 1.44E + 01 minutes | 4.48E- 03 | – | – | – | – | – | – | –
3 | Oc1c(CCc2ccc(F)cc2)c(CCCc2ccc(F)cc2)nn1-c1nc2cccnc2[nH]1 [Compound I-307, 4-[2-(4-fluorophenyl)ethyl]-3-[3-(4-fluorophenyl)propyl]-1-{3H-imidazo[4,5-b]pyridin-2-yl}-1H-pyrazol-5-ol] | 47.5 | 47.5 | 98.2 | 98.2 | 890 nM | – | – | – | 6.84E- 03 | 890 | 1.14E + 01 minutes | – | – | – | – | –
4 | Oc1c(CCC2CCOCC2)c(-c2cccc(F)c2)nn1-c1nc2cccnc2[nH]1 [Compound I-304, 3-(3-fluorophenyl)-1-{3H-imidazo[4,5-b]pyridin-2-yl}-4-[2-(oxan-4-yl)ethyl]-1H-pyrazol-5-ol] | 0 | -2 | 98.7 | 98.7 | 138 nM | 3150 | 3150 | 1.25E + 01 minutes | 5.25E- 03 | – | – | 40300 | – | – | – | –
5 | CN(C)C(=O)N1CCCC(Cc2c(C3CC3)nn(-c3nc4ccccc4[nH]3)c2O)C1 (centres unmarked) [Compound I-782, 3-{[1-(1H-1,3-benzodiazol-2-yl)-3-cyclopropyl-5-hydroxy-1H-pyrazol-4-yl]methyl}-N,N-dimethylpiperidine-1-carboxamide] | 61.1 | – | 98.8 | – | – | – | – | – | 5.13E- 03 | 9410 | 3.62E + 00 minutes | – | – | – | – | –
6 | CC[C@H](C)[C@H](O)C(=O)N1CCC(c2nn(-c3nc4ccccc4[nH]3)c(O)c2CCc2ccc(F)cc2)CC1 [Compound I-732, (2S,3S)-1-{4-[1-(1H-1,3-benzodiazol-2-yl)-4-[2-(4-fluorophenyl)ethyl]-5-hydroxy-1H-pyrazol-3-yl]piperidin-1-yl}-2-hydroxy-3-methylpentan-1-one] | 85.5 | 85.5 | 91.0 | 91.0 | 630 nM | 4210 | 4210 | 3.78E + 00 minutes | 3.09E- 03 | – | – | – | 1770 | – | – | –
7 | Oc1c(CC2CCCCO2)c(-c2ccc(C(F)(F)F)cc2)nn1-c1nc2ccccc2[nH]1 (centres unmarked) [Compound I-122, 1-(1H-1,3-benzodiazol-2-yl)-4-[(oxan-2-yl)methyl]-3-[4-(trifluoromethyl)phenyl]-1H-pyrazol-5-ol] | 95.4 | 95.4 | 75.2 | 75.2 | 1240 nM | 2250 | 1860 | 1.02E + 01 minutes | 1.07E- 02 | – | – | 11600 | – | – | – | –
8 | Oc1c(CCc2ccncc2)c(-c2cccc(F)c2)nn1-c1cc(C(F)(F)F)n[nH]1 [Compound I-615, 3-(3-fluorophenyl)-4-[2-(pyridin-4-yl)ethyl]-5′-(trifluoromethyl)-2′H-[1,3′-bipyrazol]-5-ol] | – | – | – | 98.9 | – | – | – | – | – | – | – | – | – | 47.9 | No interaction | –
9 | Oc1c(CCc2ccc(F)cc2)c(CC2CCN(CC(F)(F)F)CC2)nn1-c1nc2ccccc2[nH]1 [Compound I-1004, 1-(1H-1,3-benzodiazol-2-yl)-4-[2-(4-fluorophenyl)ethyl]-3-{[1-(2,2,2-trifluoroethyl)piperidin-4-yl]methyl}-1H-pyrazol-5-ol] | 0 | -12.3 | 100 | 101.3 | 354 nM | – | – | – | 2.27E- 03 | 354 | 2.82E + 01 minutes | – | – | – | – | –
10 | O=C(c1ccoc1)N1CCC(c2nn(-c3nc4ccccc4[nH]3)c(O)c2CCc2ccc(F)cc2)CC1 [Compound I-737, 1-(1H-1,3-benzodiazol-2-yl)-4-[2-(4-fluorophenyl)ethyl]-3-[1-(furan-3-carbonyl)piperidin-4-yl]-1H-pyrazol-5-ol] | 0 | -4.8 | 93.0 | 93.0 | 0.00489 nM | 1.7 | 1.7 | 9.06E + 03 minutes | 1.36E- 02 | – | – | 4000 | – | – | – | –
11 | CC(=O)N1CCC(CCc2c(-c3ccc(C(F)(F)F)cn3)nn(-c3nc4ccccc4[nH]3)c2O)CC1 [Compound I-714, 1-(4-{2-[1-(1H-1,3-benzodiazol-2-yl)-5-hydroxy-3-[5-(trifluoromethyl)pyridin-2-yl]-1H-pyrazol-4-yl]ethyl}piperidin-1-yl)ethan-1-one] | 63.6 | 63.6 | 98.3 | 98.3 | 1110 nM | – | – | – | 1.32E- 03 | 1110 | 3.64E + 00 minutes | – | – | – | – | –
12 | Cn1c(-n2nc(-c3ccc(C(F)(F)F)cc3)c(CCc3ccc(F)cc3)c2O)nc2ccccc21 [Compound I-401, 4-[2-(4-fluorophenyl)ethyl]-1-(1-methyl-1H-1,3-benzodiazol-2-yl)-3-[4-(trifluoromethyl)phenyl]-1H-pyrazol-5-ol] | 99.6 | – | 86.4 | – | 1890 nM and 237 nM | 78400 | – | 1.45E + 03 minutes | 2.01E- 02 | – | – | 18100 | 2470 | – | – | 52.3
13 | CC(C)(C)OC(=O)N1CCC(Cc2nn(-c3nc4ccccc4[nH]3)c(O)c2CCc2ccc(F)cc2)CC1 [Compound I-770] | 49.2 | 49.2 | 99.7 | 99.7 | 1.05 nM | – | – | – | 3.04E- 03 | 1.05 | 1.65E + 04 minutes | – | – | – | – | –
